According to article PMC11363324 (ACS Central Science, 2024):

Key:
C57BL/6J mice [1] = details: mouse, in vivo
C57BL/6J mice [2] = test: animal or person; type: in vivo; details: Mus musculus, sc, read-out: antinociception ED50 (and 95% CI)

For `CN1CC[C@]23c4c5ccc(O)c4O[C@H]2[C@@H](O)C=C[C@H]3[C@H]1C5` [Morphine], the “withdrawal: jumping frequency vs saline” value (C57BL/6J mice [1]; C57BL/6J) was “****p < 0.0001”, the “withdrawal: teeth chattering frequency vs saline” value (C57BL/6J mice [1]; C57BL/6J) was “***p = 0.0003” and the “withdrawal: forepaw licking frequency vs saline” value (C57BL/6J mice [1]) was “significant”. For the same compound, the “withdrawal: rearing frequency vs saline” value (C57BL/6J mice [1]) was “significant” and the ED50 (C57BL/6J mice [2]) was 4 mg/kg.
